Patent US8124793B2, “Derivatives of ethylene methanedisulfonate as cancer chemotherapeutic agents” (priority 2007, dated 2012)

Experiments:
Format in all cases: cell-based
MOLT-4 = test: NCI screen, growth of human tumor cells: Leukemia MOLT-4; conditions: for percent of growth of human tumor cells: MOLT-4 (Leukemia), 10^−4 molar
Method: (§1) In the NCI screening process, each compound was tested and described by a minimum of 60 data points. The test data include, but are not limited to the type of cancer, the molar concentration used in the screen, and the percent growth of the cancer. In some cases, NMR and elemental analysis were used for structural assignment.

NCI-H522 = test: NCI screen, growth of human tumor cells: Non-Small Cell Lung NCI-H522; conditions: NCI-H522 (Non-Small Cell Lung), 10^−4 molar
Method: as §1

SF-539 = test: NCI screen, growth of human tumor cells: CNS Cancer SF-539; conditions: for percent of growth of human tumor cells: SF-539 (CNS Cancer), 10^−4 molar
Method: as §1

human cancer cells = test: NCI screen summary over the cancers tested (negative growth of human cancer cells); conditions: 10^−4 M conc.; cancers with negative growth / cancers tested
Method: as §1
The derivatives in the tables are grouped using the same category as in the tables 1-6.

HCT-15 = test: NCI screen, growth of human tumor cells: Colon Cancer HCT-15; conditions: HCT-15 (Colon Cancer), 10^−4 molar
Method: as §1

KM12 = test: NCI screen, growth of human tumor cells: Colon Cancer KM12
Method: as §1

K562 = test: NCI screen, growth of human tumor cells: Leukemia K562
Method: as §1

CCRF-CEM = test: NCI screen, growth of human tumor cells: Leukemia CCRF-CEM; conditions: for % Growth: CCRF-CEM
Method: as §1

NCI-H460 = test: NCI screen, growth of human tumor cells: Non-Small Cell Lung NCI-H460; conditions: NCI-H460 (Non-Small Cell Lung), 10^−4 molar
Method: as §1

ACHN = test: NCI screen, growth of human tumor cells: Renal Cancer ACHN; conditions: ACHN (Renal Cancer), 10^−4 molar
Method: as §1

SNB-75 = test: NCI screen, growth of human tumor cells: CNS Cancer SNB-75; conditions: SNB-75 (CNS Cancer), 10^−4 molar
Method: as §1

SR = test: NCI screen, growth of human tumor cells: Leukemia SR; conditions: for % Growth: SR
Method: as §1

SF-295 = test: NCI screen, growth of human tumor cells: CNS Cancer SF-295; conditions: SF-295 (CNS Cancer), 10^−4 molar
Method: as §1

HOP-18 = test: NCI screen, growth of human tumor cells: Non-Small Cell Lung HOP-18
Method: as §1

NCI-H226 = test: NCI screen, growth of human tumor cells: Non-Small Cell Lung NCI-H226
Method: as §1

EKVX = test: NCI screen, growth of human tumor cells: Non-Small Cell Lung EKVX; conditions: EKVX
Method: as §1

SK-MEL-2 = test: NCI screen, growth of human tumor cells: Melanoma SK-MEL-2; conditions: SK-MEL-2 (Melanoma), 10^−4 molar
Method: as §1

SK-MEL-5 = test: NCI screen, growth of human tumor cells: Melanoma SK-MEL-5; conditions: SK-MEL-5, 10^−4 molar
Method: as §1

## O=S1(=O)OCCOS(=O)(=O)C1c1nc(Cl)c(Cl)nc1Cl [NSC 720685]
MOLT-4
  percent of growth of human tumor cells: 24%
NCI-H522
  percent of growth of human tumor cells: −22%
SF-539
  percent of growth of human tumor cells: 7%
Human cancer cells
  Percentage of cancers showing negative growth cancers tested: 10^−4 M conc. = 1/4 = 25%
HCT-15
  percent of growth of human tumor cells: 7%

## O=C(O)c1ccccc1C(=O)NCC1S(=O)(=O)OCCOS1(=O)=O [NSC 671537, ethylene (2-carboxy-benzoyl)-N-2-ethane-1,1-disulfonate]
KM12; KM12, 10^−4 molar
  % Growth: 62%
KM12; KM12, 10^−5 molar
  % Growth: 54%
KM12; KM12, 10^−6 molar
  % Growth: 45%
KM12; KM12, 10^−7 molar
  % Growth: 61%
KM12; KM12, 10^−8 molar
  % Growth: 41%
Human cancer cells
  Percentage of cancers showing negative growth cancers tested: 10^−4 M conc. = 0/1 = 0%

## ethylene 2-hydroxy-2-solketalyl-ethylene-1,1-disulfonate [NSC 698123]
K562; K562, 10^−4 molar
  % Growth: 63%
K562; K562, 10^−5 molar
  % Growth: 41%
SF-539; SF-539, 10^−4 molar
  % Growth: 42%
SF-539; SF-539, 10^−5 molar
  % Growth: 50%
Human cancer cells
  Percentage of cancers showing negative growth cancers tested: 10^−4 M conc. = 0/3 = 0%
CCRF-CEM; 10^−4 molar
  % Growth: 32%
CCRF-CEM; 10^−5 molar
  % Growth: 58%
CCRF-CEM; 10^−6 molar
  % Growth: 57%

## O=S1(=O)OCCOS(=O)(=O)C1=NNc1c(O)cc(S(=O)(=O)O)c2ccccc12 [NSC 686564]
MOLT-4
  percent of growth of human tumor cells: 23%
Human cancer cells
  Percentage of cancers showing negative growth cancers tested: 10^−4 M conc. = 0/5 = 0%
NCI-H460
  percent of growth of human tumor cells: 6%
ACHN
  percent of growth of human tumor cells: 26%
CCRF-CEM; CCRF-CEM (Leukemia), 10^−4 molar
  percent of growth of human tumor cells: 14%
SNB-75
  percent of growth of human tumor cells: 7%

## ethylene (2-methyl-2-acetyl)-ethylene-1,1-disulfonate [NSC 698121]
SR; 10^−4 molar
  % Growth: 60%
SR; 10^−5 molar
  % Growth: 31%
MOLT-4; MOLT-4, 10^−4 molar
  % Growth: (85) %
MOLT-4; MOLT-4, 10^−5 molar
  % Growth: 46%
K562; K562, 10^−4 molar
  % Growth: 54%
K562; K562, 10^−5 molar
  % Growth: 59%
K562; K562, 10^−6 molar
  % Growth: 54%
K562; K562, 10^−7 molar
  % Growth: 52%
SF-539
  percent of growth of human tumor cells: 18%
Human cancer cells
  Percentage of cancers showing negative growth cancers tested: 10^−4 M conc. = 1/8 = 0%
NCI-H460
  percent of growth of human tumor cells: 12%
ACHN
  percent of growth of human tumor cells: 29%
SF-295
  percent of growth of human tumor cells: 24%
CCRF-CEM; 10^−4 molar
  % Growth: 18%
CCRF-CEM; 10^−5 molar
  % Growth: 51%
CCRF-CEM; 10^−6 molar
  % Growth: 61%
CCRF-CEM; 10^−7 molar
  % Growth: 68%

## Cc1ccc(S(=O)(=O)NC(=O)C2S(=O)(=O)OCCOS2(=O)=O)cc1 [NSC 648303, ethylene(4-methylbenzenesulfonamidocarbonyl)methanedisulfonate]
HOP-18; HOP-18, 10^−4 molar
  % Growth: 69%
HOP-18; HOP-18, 10^−5 molar
  % Growth: 43%
HOP-18; HOP-18, 10^−6 molar
  % Growth: 39%
HOP-18; HOP-18, 10^−7 molar
  % Growth: 33%
HOP-18; HOP-18, 10^−8 molar
  % Growth: 31%
Human cancer cells
  Percentage of cancers showing negative growth cancers tested: 10^−4 M conc. = 0/3 = 0%
NCI-H226; NCI-H226, 10^−4 molar
  % Growth: 16%
NCI-H226; NCI-H226, 10^−5 molar
  % Growth: 37%
NCI-H226; NCI-H226, 10^−6 molar
  % Growth: 51%
NCI-H226; NCI-H226, 10^−7 molar
  % Growth: 55%
NCI-H226; NCI-H226, 10^−8 molar
  % Growth: 53%
EKVX; 10^−4 molar
  % Growth: 59%
EKVX; 10^−5 molar
  % Growth: 66%
EKVX; 10^−6 molar
  % Growth: 69%
EKVX; 10^−7 molar
  % Growth: 67%
EKVX; 10^−8 molar
  % Growth: 57%

## CN(C)C(=N)N=C(N)N.CS(C)=O.[Cl][Pt][Cl] [NSC 671543]
SK-MEL-2
  percent of growth of human tumor cells: 30%

## CC(=O)O[C@H]1CC[C@]2(C)C3C(=O)C[C@]4(C)[C@@H](C(C)=O)CC[C@@]4(C)[C@@H]3CC[C@H]2C1(C)C (stereo partly shown) [compound 731278]
SK-MEL-5
  % Growth: −78%

## O=C1c2ccccc2C(=O)N1CC1S(=O)(=O)OCCOS1(=O)=O [NSC 671536]
SR; SR (Leukemia), 10^−4 molar
  percent of growth of human tumor cells: 15%
KM12; KM12, 10^−4 molar
  % Growth: 50%
KM12; KM12, 10^−5 molar
  % Growth: 42%
KM12; KM12, 10^−6 molar
  % Growth: 39%
KM12; KM12, 10^−7 molar
  % Growth: 59%
KM12; KM12, 10^−8 molar
  % Growth: 40%
Human cancer cells
  Percentage of cancers showing negative growth cancers tested: 10^−4 M conc. = 0/2 = 0%
